Measured values as given in patent US20080306057A1, “P13K Inhibitors for the Treatment of Endometriosis” (LABORATORIES SERONO SA, priority 2005, published 2008).
Where two headings read alike, the source gives them in different places.

What was measured:
endometriosis-like foci = experiment: Rat model of endometriosis (autologous uterine horn fragment transplant); format: in vivo
Method: Endometriosis was induced in rats as described earlier (D'Antonio et al 2000). In brief, autologous uterine horn fragment was transplanted onto the inner surface of the abdominal wall in rat. Three weeks following transplantation, the size and the viability of the engrafted tissue was measured. One week after the confirmation of the tissue attachment, treatments were started. The control group received the vehicle, the PI3K inhibitor-1 was administered orally (po) at a single dose of 30 mg/kg per day. Treatment with the inhibitor was conducted for nine days, animals were anaesthetized 2 hr following the last treatment and blood samples were collected. Surface area of the endometriosis-like foci was measured. The endometriotic-like foci was removed for histology.

[1] = test system: endometriotic cells (12Z cells); experiment: Induction of cell death in endometriotic cells, crystal violet staining; format: cell-based, human; conditions: for EC50: Homo sapiens, 12Z, crystal violet staining
From the text: It is well established that the glandular and stromal tissues from the eutopic endometrium implant in ectopic sites leading to endometriosis. Survival of the ectopic implants is due to a reduced cell death (apoptosis) of these implants, and is presumed to be due to increased expression of survival cell signaling pathways. Proteins or specific small molecule compounds that induce target-specific cell-death of ectopic endometriotic cells without affecting eutopic endometrium or other normal cells could be used as a treatment for eliminating endometriosis. In this regard, we examined the effect of PI3K inhibitor-1 (5-Quinoxalin-6-ylmethylene-thiazolidine-2,4-dione) on its ability to induce cell death of endometriotic cells (12Z cells), an immortalized human epithelial endometriotic cell (Zeitvogel et al. 2001). These cells grow in culture and secrete cytokines in response to TNFα that have been reported to be elevated in the peritoneal fluid of endometriotic patients. The 12Z cells were treated with PI3K inhibitor-1 for 24 h and cell death was measured by crystal violet staining. Since the peritoneal fluids contain elevated concentrations of TNFα, the inhibitor was also tested in the presence of this cytokine. Dead cells get detached from the tissue culture plate and washed away during staining with crystal violet. The intensity of the color will determine the extent of live cells present in the plate. […] TNFα alone had no effect of cell viability (data not shown).

endometriosis = conditions: cited from earlier work
[2] = test system: endometriotic lesions from human endometrial tissue; experiment: Xenograft nude mouse model of endometriosis; format: in vivo, nude mice
Method: Human endometrial tissue was injected in ovarectomized nude mice to establish the disease (Bruner-Tran et al. 2002). In brief, endometrial biopsies obtained from normal volunteers or from endometriotic patients were cut into small pieces and cultured in the presence of estradiol for 24 h. Treated tissues, were injected either subcutaneously or intraperitoneally into ovarectomized nude mice with estradiol implant. Within 2-4 days of injection, ectopic endometriotic lesions develop in animals. Treatment with either progesterone or PI3K inhibitor-1 was started 10 days following the injection of tissue. The compound was administered at a dose of 10 mg/kg and 30 mg/kg/animal for 28 days. […] Following the completion of treatment, animals were sacrificed, lesions developed from the transplanted tissue found in both subcutaneous and intraperitoneal sites, were measured (both size and number).

[3] = 10 mg/kg × 28 days, listed as PI3K inhibitor
[4] = 30 mg/kg × 28 days, listed as PI3K inhibitor

antide [reference compound]
Regression of established endometriotic lesions (endometriosis-like foci; for comparison, data not shown): 94%

TNFα
Cell viability ([1]; TNFα alone, data not shown): no effect

C#C[C@]1(O)CC[C@H]2[C@@H]3CCC4=Cc5oncc5C[C@]4(C)[C@H]3CC[C@@]21C [Danazol]
Recurrence rate (endometriosis; after up to 4 years): 40%-50 | Patients suffering from pain with improved symptoms (endometriosis; endometriosis patients): 66-100%

O=C1NC(=O)C(=Cc2ccc3nccnc3c2)S1 [PI3K inhibitor-1, 5-Quinoxalin-6-ylmethylene-thiazolidine-2,4-dione]
Regression of established endometriotic lesions (endometriosis-like foci; 30 mg/kg per day po, nine days): 64% | Extent of cell death induced, with versus without TNFα ([1]; 24 h): greater in the presence of TNFα | Amount of live cells in culture ([1]; 24 h, either alone or in the presence of TNFα): reduce the amount of live cells in culture | EC50 ([1]; in the presence of 15 ng/ml of TNFα, 24 h, read-out: Concentration required to induce 50% cell death (EC50), +TNFα): 6.4 µM | EC50 ([1]; inhibitor alone, 24 h, read-out: Concentration required to induce 50% cell death (EC50), Alone): > 10 µM | Effect on the uterine weight and size of the animals ([2]; 10 mg/kg and 30 mg/kg for 28 days): no effect | Lesion (% Progesterone) Compared to progesterone treated group, decrease ([2]; 10 mg/kg × 28 days): 53% Decrease | Lesion size, decrease ([2]; 10 mg/kg × 28 days): 10% Decrease | Lesion (% Progesterone) Compared to progesterone treated group, decrease [2, 3]: 53% | Lesion size, decrease [2, 3]: 10% | Lesion (% Progesterone) Compared to progesterone treated group, decrease ([2]; 30 mg/kg × 28 days): 80% Decrease | Lesion size, decrease ([2]; 30 mg/kg × 28 days): 30% Decrease | Lesion (% Progesterone) Compared to progesterone treated group, decrease [2, 4]: 80% | Lesion size, decrease [2, 4]: 30%
